Results published in PubChem BioAssay (NCI).
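Test compounds were applied to cells in 96-well plates for 48 hours at 5 doses. Abbreviation: GI50, concentration required for 50% inhibition of growth. TGI is the concentration that stops growth completely.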 *1 amine or outer side, *2 acyl side, *3 side chain or, on linkers, in order; H or OH if unused. Where a SMILES comes first, the peptide text is derived from it. [ ]: non-standard residue; d: D form. ξ: configuration not given here. X21 = CC[C@@H](C)C(N[*:1])C(=O)[*:2]; ξR = N=C(N)NCCCC(N)C(=O)O; ξI = CCC(C)C(N)C(=O)O; ξL = CC(C)CC(N)C(=O)O; ξK = NCCCCC(N)C(=O)O; ξV = CC(C)C(N)C(=O)O; ξA = CC(N)C(=O)O

What was measured:
Test in all cases: NCI tumour cell line growth inhibition, 48 h
MDA-MB-435 = system: MDA-MB-435
SF-295 CNS = system: SF-295 CNS
BT-549 breast = system: BT-549 breast
KM12 colon = system: KM12 colon
MCF7 breast = system: MCF7 breast
SNB-19 CNS = system: SNB-19 CNS
K-562 leukemia = system: K-562 leukemia
SF-539 CNS = system: SF-539 CNS
SN12C renal = system: SN12C renal
OVCAR-5 ovarian = system: OVCAR-5 ovarian

SMILES	TGI (MDA-MB-435) [µM]	TGI (SF-295 CNS) [µM]	TGI (BT-549 breast) [µM]	TGI (KM12 colon) [µM]	TGI (MCF7 breast) [µM]	TGI (SNB-19 CNS) [µM]	TGI (K-562 leukemia) [µM]	TGI (SF-539 CNS) [µM]	TGI (SN12C renal) [µM]	TGI (OVCAR-5 ovarian) [µM]	GI50 (MDA-MB-435) [µM]	GI50 (SF-295 CNS) [µM]	GI50 (BT-549 breast) [µM]	GI50 (KM12 colon) [µM]	GI50 (MCF7 breast) [µM]	GI50 (SNB-19 CNS) [µM]	GI50 (K-562 leukemia) [µM]	GI50 (SF-539 CNS) [µM]	GI50 (SN12C renal) [µM]	GI50 (OVCAR-5 ovarian) [µM]
Cc1cc(N(CCCl)CCCl)ccc1/C=N/NC(=O)Cc1cc(=O)oc2cc(O)ccc12	38.5	50.8	34.7	36.6	20.4	41	66.1	40.7	38.2	93.7										
C/C(=N\N=C(N)N)C(CN(C)C)C(c1ccccc1)c1c(O)c2ccccc2oc1=O (stereo not drawn)	> 100	> 100	> 100	> 100	> 100	> 100	> 100	> 100	> 100	> 100										
Nc1nc(-c2cccc([N+](=O)[O-])c2)cc(-c2cc(-c3cccc([N+](=O)[O-])c3)nc(N)n2)n1	> 100	> 100	> 100	> 100	> 100	> 100	> 100	> 100	> 100	> 100										
COc1ccc2c(c1)/C(=N/OC(C)=O)c1c-2c(=O)[nH]c2ccccc12	34.5	48	24.1	19.6	> 100	40.4	28.7	46.4	31	24.5	17.3	18.1	7.99	3.84	66.3	15.3	11.3	16.9	16.2	11.5
COc1ccc(/C=C/NC=O)cc1	> 100	> 100	> 100	> 100	> 100	> 100	> 100	> 100	> 100	> 100										
CC(C)Nc1ncc2cc(Oc3ccc(F)cc3F)c(=O)n(C)c2n1	> 25	> 25	> 25	> 25	> 25	> 25	> 25	> 25	> 25	> 25	> 25	> 25	> 25	> 25	> 25	> 25	> 25	> 25	21.4	> 25
CS(=O)(=O)OCCN(CCOS(C)(=O)=O)c1ccc(C=O)cc1	24.6	25.9	> 69.8	29.5	> 75.9	65.5	> 100	17.4	41.3	14.4										
CCC(C)C1NC(=O)C(CC(C)C)NC(=O)C(C)NC(=O)C(C(C)C)NC(=O)C(CCCCN)NC(=O)C(CC(C)C)NC(=O)C(C(C)C)NC(=O)[C@H](C)NC(=O)C(C(C)CC)NC(=O)C(CCCN=C(N)N)NC(=O)C(CCCCN)NC(=O)C(CCCN=C(N)N)NC(=O)C(CCCCN)NC(=O)C([C@H](C)CC)NC(=O)C(CCCCN)NC1=O (stereo partly drawn) (cyclo(A[ξV][ξL][ξK][ξV][ξA][ξL][ξI][ξK][X21][ξK][ξR][ξK][ξR][ξI]))	3.33	2.52	3.42	3.9	5.65	10.1	3.79	3.61	3.32	7.16	1.51	1.04	1.56	1.73	1.54	2.07	0.783	1.84	1.37	1.94
C[C@H](N)C(=O)N1C[C@H](CCCB(O)O)[C@](N)(C(=O)O)C1	> 100	> 100	> 100	> 100	> 100	> 100	> 100	> 100	> 100	> 100	> 100	> 100	> 100	> 100	> 100	> 100	> 100	> 100	> 100	> 100
CNCCCNCCCN1C(=O)c2ccc3c4c(ccc(c24)C1=O)C(=O)N(CCCNCc1ccccc1OC)C3=O	2.91	2.39	18.7	3.36	3.21	11.1	2.9	2.29	3.41	4.14	1.07	0.894	5.03	1.18	0.512	1.68	0.408	0.782	1.46	1.25
C=C1C(=O)O[C@H]2[C@H]1CC/C(COC(=O)c1ccccc1)=C\CC[C@@]1(C)O[C@@H]21	3.24	16	2.94	8.42	2.04	11.6	13	2.1	3.26	5.36	1.34	3.83	1.23	2.57	0.497	2.61	0.451	0.662	1.39	2
CC1(C)CC(Nc2ccc(Nc3ccccc3)cc2)CC(C)(C)N1	33.6	> 95.3	27	71.2	33.5	> 80.7	39.2	41.9	80.6	> 63.1										
COc1ccc(-c2csc(NC(=O)c3cc(O)c(O)c(O)c3)n2)cc1	> 33.3	> 33.3	> 33.3	> 33.3	> 33.3	> 33.3	> 33.3	> 33.3	> 33.3	> 33.3	8.69	16.1	10.9	13.2	10.7	6.02	4.5	7.64	7.42	> 33.3
CN(C)CCCn1c2nc(=O)[nH]c(=O)c-2nc2cc(Cl)c(Cl)cc21	5.2		34.7	26	1.64	26	15.3	12.2	10.1	30.4	2.14		19.5	8.2	0.398	12.7	3.43	3.24	3.09	14.2
